Data as given in ChEMBL document CHEMBL1201862, “PubChem BioAssay data set” (2004).
Each block holds one compound with its values, some of them ahead of it. Calls of active or inactive are those of the source.

Key:
Genome polyprotein = Genome polyprotein (dengue virus type 2, UniProt P29990); assay: Dengue-2 NS5 methyltransferase inhibitors, primary screen, biochemical, confirmation dose response (AID 588689); format: functional
[1] = molecular target: T1, Runt-related transcription factor 1/Core-binding factor subunit beta (Homo sapiens, UniProt Q01196+Q13951); assay: inhibitors of RUNX1 Runt–CBFb-SMMHC binding, primary screen, biochemical, FRET, Cerulean-Runt, Venus-CBFb-SMMHC, uHTS (AID 1434); format: protein assay;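 further: partner is the CBFb-SMMHC leukemia fusion protein rather than wild-type CBFb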
[2] = molecular target: T1, Runt-related transcription factor 1/Core-binding factor subunit beta; assay: inhibitors of RUNX1 Runt–CBFb-SMMHC binding, biochemical, TR-FRET (AID 1438); format: protein assay
[3] = molecular target: T2, Sphingosine 1-phosphate receptor 4 (Homo sapiens, UniProt O95977); assay: Late-stage fluorescence dose response cell-based assay to identify agonists of the Sphingosine 1-Phosphate Receptor 4 (S1P4): purchased compounds EC50. [Related pubchem assays (depositor defined):AID1509, AID1523, AID1563, AID1686, AID1701, AID1801]; format: functional
T2 sequence (O95977 whole entry): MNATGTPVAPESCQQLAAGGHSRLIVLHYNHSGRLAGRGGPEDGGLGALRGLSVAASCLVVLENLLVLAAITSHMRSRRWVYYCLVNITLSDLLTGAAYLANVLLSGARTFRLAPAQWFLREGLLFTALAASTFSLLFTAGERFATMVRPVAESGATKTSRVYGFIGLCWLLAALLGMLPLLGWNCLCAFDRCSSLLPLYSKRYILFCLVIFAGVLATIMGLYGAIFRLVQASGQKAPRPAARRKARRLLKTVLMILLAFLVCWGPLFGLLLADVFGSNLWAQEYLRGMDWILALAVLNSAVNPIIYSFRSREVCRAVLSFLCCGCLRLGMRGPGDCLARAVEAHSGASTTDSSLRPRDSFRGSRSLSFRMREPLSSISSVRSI

Troponin, cardiac muscle = Troponin, cardiac muscle (Homo sapiens, UniProt P19429+P45379+P63316); assay: Fluorescence-based biochemical high throughput dose response assay for activators of the calcium sensitivity of cardiac Regulated Thin Filaments (RTF). [Related pubchem assays (depositor defined):AID493008, AID493018, AID504382, AID504383]; format: protein-complex assay
[4] = molecular target: T3, Voltage-gated N-type calcium channel alpha-1B subunit/Amyloid beta A4 precursor protein-binding family A member 1 (Homo sapiens, UniProt Q00975+Q02410); assay: disruptors of Mint-PDZ/N-type channel peptide interaction – biochemical, HTRF, set 2, SAR follow-up (AID 434980); format: functional
[5] = molecular target: T3, Voltage-gated N-type calcium channel alpha-1B subunit/Amyloid beta A4 precursor protein-binding family A member 1; assay: disruptors of Mint-PDZ/N-type channel peptide interaction – biochemical, HTRF, SAR follow-up (AID 2489); format: functional
SUMO E1/E2 = SUMO E1/E2 (Homo sapiens, UniProt P63279+Q9UBE0+Q9UBT2); assay: SAR analysis of SUMOylation using HTRF in an in-Vitro dose response assay. [Related pubchem assays (depositor defined):AID2006, AID2011, AID2018, AID2069, AID2658]; format: functional
[6] = growth suppression of PTEN-null colon cells, dose response, cell-based, HCT116 PTEN knockout (AID 1047); format: functional;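 further: HCT116 colon tumor cells with PTEN knocked out; cells exposed to compound for 60 hours before readout; potency for loss of cell viability measured by luminescence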
SUMO-activating enzyme = SUMO-activating enzyme (Homo sapiens, UniProt Q9UBT2); assay: SUMOylation inhibitor hit validation, confirmation, SUMOylation inhibitor project, biochemical, AlphaScreen (AID 2018); format: functional
Bcl-2-like protein 10 = molecular target: T4, Bcl-2-like protein 10 (Homo sapiens, UniProt Q9HD36); assay: displacers of TR3 peptide from Bcl-B, primary screen, selectivity assay for Bfl-1 inhibitor project, biochemical, fluorescence polarization, FITC-TR3 peptide (AID 748);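 further: fluorescence polarization from a fluorescein-labelled TR3 peptide binding purified Bcl-B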
T4 sequence (Q9HD36 whole entry): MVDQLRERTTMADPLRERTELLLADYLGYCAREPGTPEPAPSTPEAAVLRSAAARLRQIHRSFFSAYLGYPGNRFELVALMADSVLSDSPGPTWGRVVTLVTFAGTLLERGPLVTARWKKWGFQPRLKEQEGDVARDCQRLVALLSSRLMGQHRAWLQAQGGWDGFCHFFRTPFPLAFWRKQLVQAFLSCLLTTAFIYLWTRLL

[7] = molecular target: Alkaline phosphatase, placental type (Homo sapiens, UniProt P05187); assay: PLAP enzyme inhibitors, confirmation, biochemical, luminescence (AID 1512); format: functional
Estrogen receptor beta = Estrogen receptor beta (Homo sapiens, UniProt Q92731); assay: ERβ–SRC-3 coactivator interaction inhibitors, confirmation, orthogonal assay, biochemical, ELISA, streptavidin-HRP readout (AID 1060)
[8] = NIH-3T3 fibroblast cytotoxicity, dose response, cytotoxicity control, cell-based, fluorescence, Alamar Blue, secondary assay (AID 2327); format: functional;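 further: NIH-3T3 mouse fibroblasts cultured with fluconazole at 8 µg/mL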
[9] = C. albicans growth with fluconazole, confirmation, fluorescence, retest (AID 2467); format: functional, cell-based
[10] = molecular target: T5, Mannose-6-phosphate isomerase (Homo sapiens, UniProt P34949); assay: human PMI inhibitors, high substrate, primary screen, biochemical, fluorescence intensity, high mannose 6-phosphate (AID 1220)
T5 sequence (P34949 whole entry): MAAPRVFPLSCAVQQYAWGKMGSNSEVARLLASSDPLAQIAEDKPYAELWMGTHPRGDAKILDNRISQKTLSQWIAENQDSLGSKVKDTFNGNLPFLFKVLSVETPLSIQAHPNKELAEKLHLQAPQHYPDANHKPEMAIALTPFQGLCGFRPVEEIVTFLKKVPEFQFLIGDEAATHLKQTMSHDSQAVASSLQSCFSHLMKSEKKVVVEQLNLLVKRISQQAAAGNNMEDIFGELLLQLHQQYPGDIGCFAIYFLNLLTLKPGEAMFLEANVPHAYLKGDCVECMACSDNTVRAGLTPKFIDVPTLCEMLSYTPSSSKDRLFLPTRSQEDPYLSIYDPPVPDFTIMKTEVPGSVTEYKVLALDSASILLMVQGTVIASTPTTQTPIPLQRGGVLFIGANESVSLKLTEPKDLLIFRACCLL

Leucine aminopeptidase = molecular target: T6, Leucine aminopeptidase (Plasmodium falciparum 3D7, UniProt Q8IL11); assay: P. falciparum M17LAP inhibitors, primary screen, biochemical, fluorogenic H-Leu-NHMec substrate, 1536-well (AID 1619); format: functional
T6 sequence (Q8IL11 whole entry): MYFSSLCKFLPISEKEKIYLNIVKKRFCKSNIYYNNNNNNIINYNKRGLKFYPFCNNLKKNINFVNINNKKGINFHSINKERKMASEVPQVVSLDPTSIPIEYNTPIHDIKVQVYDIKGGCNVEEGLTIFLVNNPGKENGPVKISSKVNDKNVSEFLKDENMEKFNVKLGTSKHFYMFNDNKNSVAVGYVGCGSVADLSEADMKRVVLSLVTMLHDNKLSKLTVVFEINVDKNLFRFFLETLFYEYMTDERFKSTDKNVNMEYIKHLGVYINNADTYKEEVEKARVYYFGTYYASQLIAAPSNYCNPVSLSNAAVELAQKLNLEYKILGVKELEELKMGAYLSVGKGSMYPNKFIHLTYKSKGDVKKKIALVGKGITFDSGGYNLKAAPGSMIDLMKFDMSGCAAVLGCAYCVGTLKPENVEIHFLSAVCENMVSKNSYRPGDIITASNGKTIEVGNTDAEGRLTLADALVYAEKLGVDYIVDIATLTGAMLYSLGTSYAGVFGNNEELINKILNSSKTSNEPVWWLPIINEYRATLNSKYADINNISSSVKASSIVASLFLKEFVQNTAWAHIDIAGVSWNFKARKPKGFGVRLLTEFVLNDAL

[11] = Luminescence Cell-Based Dose Retest to Confirm Inhibitors of Cancer Stem Cells. [Related pubchem assays (depositor defined):AID2717, AID2721]; format: functional; conditions: Homo sapiens
[12] = molecular target: T7, Short transient receptor potential channel 4 (Mus musculus, UniProt Q9QUQ5); assay: mouse TRPC4 channel inhibitors, dose response, cell-based, HEK293 TRPC4/mu-opioid, Fluo-4 calcium (AID 434942); format: functional;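 further: potency of inhibitors blocking the TRPC4 calcium response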
T7 sequence (Q9QUQ5 whole entry): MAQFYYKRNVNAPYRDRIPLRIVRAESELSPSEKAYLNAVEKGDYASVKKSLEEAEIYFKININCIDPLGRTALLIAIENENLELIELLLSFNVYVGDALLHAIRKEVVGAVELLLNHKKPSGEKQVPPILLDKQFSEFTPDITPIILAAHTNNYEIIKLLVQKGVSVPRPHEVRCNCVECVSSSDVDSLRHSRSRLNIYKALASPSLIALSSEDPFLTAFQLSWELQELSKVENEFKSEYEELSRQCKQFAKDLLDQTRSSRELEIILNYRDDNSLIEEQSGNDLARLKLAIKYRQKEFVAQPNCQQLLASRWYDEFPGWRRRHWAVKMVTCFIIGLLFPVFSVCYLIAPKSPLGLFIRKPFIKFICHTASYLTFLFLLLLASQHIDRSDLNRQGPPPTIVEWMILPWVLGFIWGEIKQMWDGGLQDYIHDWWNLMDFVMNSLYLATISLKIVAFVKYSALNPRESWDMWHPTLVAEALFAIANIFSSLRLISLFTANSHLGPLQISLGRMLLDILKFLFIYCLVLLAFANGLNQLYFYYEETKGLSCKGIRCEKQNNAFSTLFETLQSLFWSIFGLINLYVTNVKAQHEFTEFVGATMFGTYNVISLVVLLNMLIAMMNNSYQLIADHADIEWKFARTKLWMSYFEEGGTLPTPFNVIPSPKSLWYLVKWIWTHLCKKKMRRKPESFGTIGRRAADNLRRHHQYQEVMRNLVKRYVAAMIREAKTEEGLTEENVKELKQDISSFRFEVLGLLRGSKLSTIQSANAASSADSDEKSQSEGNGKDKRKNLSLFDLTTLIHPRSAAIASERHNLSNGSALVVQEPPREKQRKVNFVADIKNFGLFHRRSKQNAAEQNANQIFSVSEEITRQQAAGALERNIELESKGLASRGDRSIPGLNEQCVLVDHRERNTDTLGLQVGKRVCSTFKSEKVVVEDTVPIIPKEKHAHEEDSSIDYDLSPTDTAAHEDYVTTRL

CAAX prenyl protease 1 = CAAX prenyl protease 1 (Saccharomyces cerevisiae S288c, UniProt P47154); assay: Ste24 protease inhibitors, dose response, biochemical, S. cerevisiae, plate reader, cherry-pick (AID 488815)
[13] = molecular target: G-protein coupled receptor 55 (Homo sapiens, UniProt Q9Y2T6); assay: GPR55 antagonists blocking LPI-driven arrestin recruitment, primary screen, imaging, U2OS, beta-arrestin-GFP, LPI agonist (AID 2013); format: functional;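 further: antagonist potency measured as reduced agonist-driven arrestin aggregation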
[14] = molecular target: DNA dC->dU-editing enzyme APOBEC-3G (Homo sapiens, UniProt Q9HC16); format: functional;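 further: Dose-response counterscreen measuring inhibition of APOBEC3G DNA deaminase activity, run while confirming APOBEC3A inhibitors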
[15] = molecular target: DNA dC->dU-editing enzyme APOBEC-3A (Homo sapiens, UniProt P31941); assay: Dose Response confirmation of small molecule APOBEC3A DNA Deaminase Inhibitors via a fluorescence-based single-stranded DNA deaminase assay. [Related pubchem assays (depositor defined):AID493011, AID493024]; format: functional

SMILES: CCC1(C)Cc2c(sc3[nH]c(=O)[nH]c(=O)c23)CS1 (stereo not given)
IC50 (Genome polyprotein): 88.7 µM (active) | IC50 [1]: 38.5 µM (active) | IC50 [2]: 45.1 µM (active)

SMILES: Cc1ccc(CNC(=O)C(C)OC(=O)c2c(C)nn(Cc3ccc(C)cc3)c2Cl)cc1 (stereo not given)
EC50 [3]: > 50 µM (inactive)

EC50 [3]: > 50 µM (inactive)
SMILES: CCNC(=O)NC(=O)C(C)OC(=O)c1cc2c(C)nn(Cc3ccccc3)c2s1 (stereo not given)

EC50 (Troponin, cardiac muscle): 12.9 µM (inactive)
SMILES: COc1ccc(/C=C2\SC(=S)N(CCCC(=O)Nc3ccccc3C(=O)O)C2=O)cc1OC

IC50 [4]: 3.41 µM (active) | IC50 [5]: 15.4 µM (active) | IC50 (SUMO E1/E2): 2.06 µM (active)
SMILES: COc1ccccc1C(=O)NC(=O)COC(=O)c1cc(-c2ccco2)nc2ccccc12

SMILES: Cc1cc(NC(=O)Cn2c(=O)n(Cc3ccccc3)c(=O)c3ccccc32)no1
EC50 [6]: 35.9 µM (active) | IC50 (SUMO-activating enzyme): 67.7 µM (active)

SMILES: O=C(Cc1cnn(-c2ccccc2)c1)c1ccc(O)c(O)c1O
IC50 (Bcl-2-like protein 10): 39.5 µM (active) | IC50 (Genome polyprotein): 75.7 µM (active) | IC50 [7]: > 100 µM (inactive) | IC50 (Estrogen receptor beta): 34.5 µM (not active) | EC50 [8]: > 150 µM (inactive) | EC50 [9]: > 38 µM (not active) | IC50 [10]: 4.69 µM (active)

SMILES: Cc1ccc(-n2c(C)cc(/C=N/NC(=O)Cn3c4ccccc4c(=O)c4ccccc43)c2C)cc1
IC50 [1]: 2.37 µM (active) | IC50 [2]: 13 µM (active)

SMILES: O=C(Nc1cc(N2CCOCC2)ncn1)NC1(C(F)(F)F)Oc2ccc(Cl)cc2O1 (stereo not given)
IC50 [7]: 10.4 µM (active) | IC50 [10]: 18.1 µM (active) | IC50 (Leucine aminopeptidase): 32.4 µM (active) | AC50 [11]: 7.43 µM (active)

EC50 [12]: 2.99 µM (active)
SMILES: COc1cc2ccccc2c2c1CCCC2=O

EC50 (Troponin, cardiac muscle): > 7.94 µM (active)
SMILES: CC1=CC(=C(C#N)c2nc3ccccc3s2)C=C(C)N1c1ccc(F)cc1

AC50 (CAAX prenyl protease 1): 3.7 µM (active)
SMILES: CCOC(=O)c1sc2nc(C3CC3)cc(-c3ccc(F)cc3)c2c1N

SMILES: COC(=O)C1=C(C)N(Cc2ccccc2)C(NCCc2cccnc2)=N[C@H]1c1ccccc1
IC50 [13]: 1.08 µM (active) | IC50 [14]: 4.62 µM (active) | IC50 [15]: 2.69 µM (active)
